As a reminder, the melting point is the temperature, or range, at which the solid turns liquid.

`CCc1ccc(CC(=O)Nc2ccccc2Cl)cc1Oc1cc(Cl)ccc1Cl` [Compound I-21, N-(2-Chloro-phenyl)-2-[3-(2,5-dichloro-phenoxy)-4-ethyl-phenyl]-acetamide] registered a melting point of 146.3 to 147.1 °C.

Consider `CCc1ccc(CC(=O)Nc2ccc(S(N)(=O)=O)cc2)cc1Oc1cc(C#N)cc(F)c1Cl` [Compound I-49, 2-[3-(2-Chloro-5-cyano-3-fluoro-phenoxy)-4-ethyl-phenyl]-N-(4-sulfamoyl-phenyl)-acetamide], for which the melting point lay within 167.9 to 170.5 °C.

For `Cc1ccc(CC(=O)Nc2ccc(S(N)(=O)=O)cc2)cc1Oc1cc(F)cc(C#N)c1` [Compound I-11, 2-[3-(3-Cyano-5-fluoro-phenoxy)-4-methyl-phenyl]-N-(4-sulfamoyl-phenyl)-acetamide], the melting point lay in the range of 165.8 to 168.1 °C.

`COCCC(=O)NS(=O)(=O)c1ccc(NC(=O)Cc2ccc(Cl)c(Oc3cc(Cl)cc(C#N)c3)c2F)c(Cl)c1.[Na]` came in with a melting point of 133.1 to 140.7 °C.

Take `Cc1cc(S(N)(=O)=O)ccc1NC(=O)Cc1ccc(Cl)c(Oc2cc(C#N)cc(C(C)(F)F)c2)c1F` [Compound I-96, 2-{4-Chloro-3-[3-cyano-5-(1,1-difluoro-ethyl)-phenoxy]-2-fluoro-phenyl}-N-(2-methyl-4-sulfamoyl-phenyl)-acetamide]: the melting point was in the range of 198.5 to 201 °C.

As for `CCc1ccc(CC(=O)Nc2ccc(S(N)(=O)=O)cc2Cl)cc1Oc1cc(Cl)cc(C#N)c1` [Compound I-47, 2-[3-(3-Chloro-5-cyano-phenoxy)-4-ethyl-phenyl]-N-(2-chloro-4-sulfamoyl-phenyl)-acetamide], the melting point was 181.1 to 183.9 °C.

Take `Cc1cc(S(=O)(=O)NC(=O)c2cccnc2)ccc1NC(=O)Cc1ccc(Cl)c(Oc2cc(Cl)cc(C#N)c2)c1F.Cl`: the melting point was 261.8 to 263.6 °C.

In turn, `Cc1cc(S(N)(=O)=O)ccc1NC(=O)Cc1ccc(Cl)c(Oc2cc(C#N)cc(C(F)(F)F)c2)c1` [Compound I-89, 2-[4-Chloro-3-(3-cyano-5-trifluoromethyl-phenoxy)-phenyl]-N-(2-methyl-4-sulfamoyl-phenyl)-acetamide] registered a melting point of 211.6 to 214.6 °C.

Molecule `COCC(=O)NS(=O)(=O)c1ccc(NC(=O)Cc2ccc(Cl)c(Oc3cc(Cl)cc(C#N)c3)c2F)c(Cl)c1.[Na]` gave a melting point of 151.7 to 152.3 °C.

With `CC(C)c1ccc(CC(=O)Nc2ccccc2Cl)cc1Oc1cc(Cl)ccc1Br` [Compound I-27, 2-[3-(2-Bromo-5-chloro-phenoxy)-4-isopropyl-phenyl]-N-(2-chloro-phenyl)-acetamide], the melting point lay within 142.9 to 143.6 °C.

As to `Cl.N#Cc1cc(Cl)cc(Oc2c(Cl)ccc(CC(=O)Nc3ccc(S(=O)(=O)NC(=O)CCN)cc3Cl)c2F)c1`, the melting point was in the range of 199.3 to 199.6 °C.

Turning to `NS(=O)(=O)c1ccc(NC(=O)Cc2ccc(Cl)c(C(=O)c3cc(Cl)ccc3Cl)c2)cc1` [Compound I-250, 2-[4-Chloro-3-(2,5-dichloro-benzoyl)-phenyl]-N-(4-sulfamoyl-phenyl)-acetamide], the melting point lay in the range of 213.9 to 216.1 °C.

`Cc1cc(S(=O)(=O)CCN)ccc1NC(=O)Cc1ccc(C)c(Oc2cc(Cl)cc(C#N)c2)c1` [Compound I-154, N-[4-(2-Amino-ethanesulfonyl)-2-methyl-phenyl]-2-[3-(3-chloro-5-cyano-phenoxy)-4-methyl-phenyl]-acetamide] registered a melting point of 92.4 to 95.5 °C.

As to `COc1ccc(CC(=O)Nc2ccc(S(N)(=O)=O)cc2Cl)cc1Oc1cc(C#N)cc(C(F)F)c1` [Compound I-94, N-(2-Chloro-4-sulfamoyl-phenyl)-2-[3-(3-cyano-5-difluoromethyl-phenoxy)-4-methoxy-phenyl]-acetamide], the melting point was in the range of 185 to 187.9 °C.

As to `COc1ccc(CC(=O)Nc2ccc(S(N)(=O)=O)cc2C)c(F)c1Oc1cc(Cl)cc(C#N)c1` [Compound I-191, 2-[3-(3-Chloro-5-cyano-phenoxy)-2-fluoro-4-methoxy-phenyl]-N-(2-methyl-4-sulfamoyl-phenyl)-acetamide], the melting point fell in the range of 239.9 to 240.8 °C.

Consider `CCC(=O)N(C)S(=O)(=O)c1ccc(NC(=O)Cc2ccc(Cl)c(Oc3cc(Cl)cc(C#N)c3)c2F)c(Cl)c1` [Compound I-162, 2-[4-Chloro-3-(3-chloro-5-cyano-phenoxy)-2-fluoro-phenyl]-N-[2-chloro-4-(methyl-propionyl-sulfamoyl)-phenyl]-acetamide], for which the melting point is 198.2 to 200.6 °C.

As for `Cc1ccc(CC(=O)Nc2ccnn2C)cc1Oc1cc(Cl)cc(C#N)c1` [Compound I-227, 2-[3-(3-Chloro-5-cyano-phenoxy)-4-methyl-phenyl]-N-(2-methyl-2H-pyrazol-3-yl)-acetamide], the melting point fell in the range of 129.5 to 132.8 °C.

`Cc1cc(OCC[C@@H](O)CO)ccc1NC(=O)Cc1ccc(C)c(Oc2cc(Cl)cc(C#N)c2)c1` [Compound I-151, 2-[3-(3-Chloro-5-cyano-phenoxy)-4-methyl-phenyl]-N-[4-((R)-3,4-dihydroxy-butoxy)-2-methyl-phenyl]-acetamide]: the melting point was in the range of 104.9 to 106.4 °C.

Consider `Cc1ccc(CC(=O)Nc2ccccc2Cl)cc1Oc1cc(F)cc(C#N)c1` [Compound I-12, N-(2-Chloro-phenyl)-2-[3-(3-cyano-5-fluoro-phenoxy)-4-methyl-phenyl]-acetamide], for which the melting point is 131.1 to 132.2 °C.

On to `COc1ccc(CC(=O)Nc2ccc(S(N)(=O)=O)cc2Cl)c(F)c1Oc1cc(Cl)cc(C#N)c1` [Compound I-190, 2-[3-(3-Chloro-5-cyano-phenoxy)-2-fluoro-4-methoxy-phenyl]-N-(2-chloro-4-sulfamoyl-phenyl)-acetamide], for which the melting point is 212 to 212.8 °C.

Take `CCc1ccc(CC(=O)Nc2ccc(S(N)(=O)=O)cc2C)cc1Oc1cc(Cl)cc(Br)c1Cl` [Compound I-36, 2-[3-(3-Bromo-2,5-dichloro-phenoxy)-4-ethyl-phenyl]-N-(2-methyl-4-sulfamoyl-phenyl)-acetamide]: the melting point was in the range of 213.2 to 219.6 °C.

In the case of `CC(C)CCC(=O)NS(=O)(=O)c1ccc(NC(=O)Cc2ccc(Cl)c(Oc3cc(Cl)cc(C#N)c3)c2F)c(Cl)c1.[Na]`, the melting point is 195.6 to 197 °C.

Molecule `Cc1cc(CC(=O)Nc2ccc(S(N)(=O)=O)cc2C)cc(Oc2cc(C#N)ccc2Cl)c1` [Compound I-147, 2-[3-(2-Chloro-5-cyano-phenoxy)-5-methyl-phenyl]-N-(2-methyl-4-sulfamoyl-phenyl)-acetamide] yielded a melting point of 200.3 to 201.1 °C.

Consider `O=C(Cc1ccc(Cl)c(Oc2cccc(Cl)c2)c1)Nc1ccccc1` [Compound I-192, 2-[4-Chloro-3-(3-chloro-phenoxy)-phenyl]-N-phenyl-acetamide], for which the melting point is 126.8 to 127.7 °C.

Molecule `CCCC(=O)NS(=O)(=O)c1ccc(NC(=O)Cc2ccc(Cl)c(Oc3cc(Cl)cc(C#N)c3)c2F)c(Cl)c1.[Na]` [Compound I-138, N-(4-Butyrylsulfamoyl-2-chloro-phenyl)-2-[4-chloro-3-(3-chloro-5-cyano-phenoxy)-2-fluoro-phenyl]-acetamide; sodium salt] returned a melting point of 157.2 to 157.9 °C.

Take `Cl.N#Cc1cc(Cl)cc(Oc2c(Cl)ccc(CC(=O)Nc3ccc(S(=O)(=O)NC(=O)CN4CCOCC4)cc3Cl)c2F)c1`: the melting point was 223.3 to 225 °C.

`COc1ccc(CC(=O)Nc2ccc(S(N)(=O)=O)cc2C)cc1C(=O)c1cc(Br)ccc1Cl` [Compound I-264, 2-[3-(5-Bromo-2-chloro-benzoyl)-4-methoxy-phenyl]-N-(2-methyl-4-sulfamoyl-phenyl)-acetamide] registered a melting point of 177 to 177.9 °C.

In the case of `Cc1cc(CC(=O)Nc2ccccc2Cl)cc(C(=O)c2cc(Cl)cc(Cl)c2)c1` [Compound I-231, N-(2-Chloro-phenyl)-2-[3-(3,5-dichloro-benzoyl)-5-methyl-phenyl]-acetamide], the melting point was 142 to 146.2 °C.

Turning to `CCc1ccc(CC(=O)Nc2ccccc2Cl)cc1Oc1cc(C#N)cc(F)c1Cl` [Compound I-59, 2-[3-(2-Chloro-5-cyano-3-fluoro-phenoxy)-4-ethyl-phenyl]-N-(2-chloro-phenyl)-acetamide], the melting point was in the range of 142.1 to 142.8 °C.

`N#Cc1cccc(Oc2cc(CC(=O)Nc3ccc(S(N)(=O)=O)cc3)cc3ccoc23)c1` [Compound I-144, 2-[7-(3-Cyano-phenoxy)-benzofuran-5-yl]-N-(4-sulfamoyl-phenyl)-acetamide] showed a melting point of 196.4 to 198.7 °C.

Molecule `CCc1ccc(CC(=O)Nc2ccc(S(N)(=O)=O)cc2)cc1Oc1cc(Cl)ccc1Br` [Compound I-15, 2-[3-(2-Bromo-5-chloro-phenoxy)-4-ethyl-phenyl]-N-(4-sulfamoyl-phenyl)-acetamide] had a melting point of 193.7 to 195.9 °C.

Consider `O=C(Cc1ccc(Cl)c(C(=O)c2cc(Cl)ccc2Cl)c1)Nc1ccccc1Cl` [Compound I-248, 2-[4-Chloro-3-(2,5-dichloro-benzoyl)-phenyl]-N-(2-chloro-phenyl)-acetamide], for which the melting point lay in the range of 121 to 123.5 °C.

`CSc1nc(NC(=O)Cc2ccc(C)c(Oc3cc(Cl)cc(C#N)c3)c2)n(C)n1` [Compound I-230, 2-[3-(3-Chloro-5-cyano-phenoxy)-4-methyl-phenyl]-N-(2-methyl-5-methylsulfanyl-2H-[1,2,4]triazol-3-yl)-acetamide] came in with a melting point of 173 to 174 °C.

`N#Cc1cc(Oc2c(F)c(CC(=O)Nc3ccc(S(N)(=O)=O)cc3)cc(Br)c2Br)cc(C(F)F)c1` [Compound I-114, 2-[4,5-Dibromo-3-(3-cyano-5-difluoromethyl-phenoxy)-2-fluoro-phenyl]-N-(4-sulfamoyl-phenyl)-acetamide] displayed a melting point of 144 to 147 °C.

In turn, `CCc1ccc(CC(=O)Nc2ccc(S(N)(=O)=O)cc2)cc1Oc1cc(Br)cc(F)c1Cl` [Compound I-39, 2-[3-(5-Bromo-2-chloro-3-fluoro-phenoxy)-4-ethyl-phenyl]-N-(4-sulfamoyl-phenyl)-acetamide] registered a melting point of 209.9 to 211.1 °C.

`Cc1cc(CC(=O)Nc2ccc(S(N)(=O)=O)cc2)cc(C(=O)c2cccc(Cl)c2)c1` [Compound I-261, 2-[3-(3-Chloro-benzoyl)-5-methyl-phenyl]-N-(4-sulfamoyl-phenyl)-acetamide] came in with a melting point of 211 to 213.1 °C.

For the origin of these results see patent publication US8329755B2, “Methods for treating retroviral infections” (Roche Palo Alto LLC, priority 2004, dated 2012).
